Columns and labels:
[1] = system: Wnt-responsive promoter driving firefly luciferase in SW480 cells; experiment: Wnt reporter (SP5 promoter-luciferase) screening assay in SW480 cells; type: cell-based; conditions: Homo sapiens, 24-40 h, top concentration ten micromolar
Text: Another screening assay for Wnt activity is described as follows. Reporter cell lines can be generated by stably transducing cells of cancer cell lines (e.g., colon cancer) with a lentiviral construct that include a Wnt-responsive promoter driving expression of the firefly luciferase gene.
Lentiviral constructs can be made in which the SP5 promoter, a promoter having eight TCF/LEF binding sites derived from the SP5 promoter, is linked upstream of the firefly luciferase gene. The lentiviral constructs can also include a hygromycin resistance gene as a selectable marker. The SP5 promoter construct can be used to transduce SW480 cells, a colon cancer cell line having a mutated APC gene that generates a truncated APC protein, leading to de-regulated accumulation of β-catenin.
Cultured SW480 cells bearing a reporter construct can be distributed at approximately 10,000 cells per well into 96 well or 384 well plates. Compounds from a small molecule compound library can then be added to the wells in half-log dilutions using a ten micromolar top concentration. A series of control wells for each cell type receive only buffer and compound solvent. Twenty-four to forty hours after the addition of compound, reporter activity for luciferase can be assayed, for example, by addition of the BrightGlo luminescence reagent (Promega) and the Victor3 plate reader (Perkin Elmer). Readings can be normalized to DMSO only treated cells, and normalized activities can then be used in the EC50 calculations.

[2] = system: primary human mesenchymal stem cells (hMSCs); experiment: Tenocyte differentiation screening in hMSCs (SCXA-positive cells, 4 days); type: cell-based; conditions: 96 h, fold change over DMSO
Text: Representative compounds were screened using primary human mesenchymal stem cells (hMSCs) to determine their ability to induce tenocyte differentiation (process by which tendon is developed).
Primary human mesenchymal stem cells (hMSCs) were purchased from Lonza (Walkersville, Md.) and expanded in Mesenchymal Stem Cell Growth Media (Lonza). Cells between passage 3 and 6 were used for the experiments.
Cells were fixed using 4% formaldehyde (Electron Microscopy Sciences), and stained with anti-Sclerasis (anti-SCXA) antibodies (Abgent, San Diego, Calif.) [Webb S., et. al., Retinoic acid receptor signaling preserves tendon stem cell characteristics and prevents spontaneous differentiation in vitro, Stem Cell Research & Therapy 2016, 7:45] overnight at 4° C. […] Number of cells positive for SCXA in each well was quantified using the Celllnsight CX5. Data was normalized to the average of 12 DMSO treated wells on the same plate using Dotmatics Studies module. The normalized averages (fold change over DMSO) of 3 replicate wells for each compound concentration were calculated. Due to solubility limitations of some of the compounds, values for higher doses were manually corrected and curve fitting and EC50 determinations were performed using Dotmatics Studies.
EC50 for each compound is reported.

Row | Structure (SMILES) | EC50 [1] [nM] | EC50 [2] [nM]
1 | CN(C)C(=O)Nc1cncc(-c2ccc3[nH]nc(C(=O)Nc4cccnc4)c3c2)c1 [compound 1, 5-(5-(3,3-dimethylureido)pyridin-3-yl)-N-(pyridin-3-yl)-1H-indazole-3-carboxamide] | 175 | > 100000
2 | O=C(Nc1ccc(C(F)(F)F)nc1)c1n[nH]c2ccc(-c3cncc(F)c3)cc12 [compound 2, 5-(5-fluoropyridin-3-yl)-N-(6-(trifluoromethyl)pyridin-3-yl)-1H-indazole-3-carboxamide] | 5000 | > 100000
3 | O=C(Nc1ccc(C(F)(F)F)nc1)c1n[nH]c2ccc(-c3cccnc3)cc12 [compound 3, 5-(Pyridin-3-yl)-N-(6-(trifluoromethyl)pyridin-3-yl)-1H-indazole-3-carboxamide] | 200 | > 100000
4 | O=C(Nc1cccnc1)c1n[nH]c2ccc(-c3cccnc3)cc12 [compound 4, N,5-di(pyridin-3-yl)-1H-indazole-3-carboxamide] | 160 | 4550
5 | O=C(Nc1cccc(-c2cccc(F)c2)c1)c1n[nH]c2ccc(-c3cccnc3)cc12 [compound 5, N-(3′-Fluorobiphenyl-3-yl)-5-(pyridin-3-yl)-1H-indazole-3-carboxamide] | ≥ 10000 | > 100000
6 | CN(C)Cc1cncc(NC(=O)c2n[nH]c3ccc(-c4cccnc4)cc23)c1 [compound 7, N-(5-((Dimethylamino)methyl)pyridin-3-yl)-5-(pyridin-3-yl)-1H-indazole-3-carboxamide] | 110 | 6940
7 | O=C(Nc1ccc(CN2CCCC2)nc1)c1n[nH]c2ccc(-c3cccnc3)cc12 [compound 8, 5-(Pyridin-3-yl)-N-(6-(pyrrolidin-1-ylmethyl)pyridin-3-yl)-1H-indazole-3-carboxamide] | 130 | 4980
8 | O=C(Nc1cncc(-c2cccc(F)c2)c1)c1n[nH]c2ccc(-c3cccnc3)cc12 [compound 9, N-(5-(3-Fluorophenyl)pyridin-3-yl)-5-(pyridin-3-yl)-1H-indazole-3-carboxamide] | ≥ 10000 | > 100000
9 | CN1CCN(c2ncccc2NC(=O)c2n[nH]c3ccc(-c4cccnc4)cc23)CC1 [compound 11, N-(2-(4-Methylpiperazin-1-yl)pyridin-3-yl)-5-(pyridin-3-yl)-1H-indazole-3-carboxamide] | ≥ 10000 | > 100000
10 | CN1CCN(c2ccc(NC(=O)c3n[nH]c4ccc(-c5cccnc5)cc34)cn2)CC1 [compound 12, N-(6-(4-Methylpiperazin-1-yl)pyridin-3-yl)-5-(pyridin-3-yl)-1H-indazole-3-carboxamide] | 63 | 5000
11 | O=C(Nc1cccnc1)c1n[nH]c2ccc(-c3cncc(F)c3)cc12 [compound 13, 5-(5-fluoropyridin-3-yl)-N-(pyridin-3-yl)-1H-indazole-3-carboxamide] | 1250 | > 100000
12 | O=C(Nc1ccnnc1)c1n[nH]c2ccc(-c3cccnc3)cc12 [compound 14, N-(Pyridazin-4-yl)-5-(pyridin-3-yl)-1H-indazole-3-carboxamide] | 106 | 50400
13 | CN1CCN(Cc2ccc(NC(=O)c3n[nH]c4ccc(-c5cccnc5)cc34)cn2)CC1 [compound 15, N-(6-((4-Methylpiperazin-1-yl)methyl)pyridin-3-yl)-5-(pyridin-3-yl)-1H-indazole-3-carboxamide] | 37 | 4800
14 | O=C(Nc1cccnc1)c1n[nH]c2ccc(-c3cncc(C(F)(F)F)c3)cc12 [compound 16, N-(pyridin-3-yl)-5-(5-(trifluoromethyl)pyridin-yl)-1H-indazole-3-carboxamide] | ≥ 10000 | 35800
15 | O=C(Nc1ccc(Oc2ccccc2F)nc1)c1n[nH]c2ccc(-c3cccnc3)cc12 [compound 18, N-(6-(2-fluorophenoxy)pyridin-3-yl)-5-(pyridin-3-yl)-1H-indazole-3-carboxamide] | 122 | 5380
16 | O=C(Nc1ccc(Oc2cccc(F)c2)nc1)c1n[nH]c2ccc(-c3cccnc3)cc12 [compound 19, N-(6-(3-Fluorophenoxy)pyridin-3-yl)-5-(pyridin-3-yl)-1H-indazole-3-carboxamide] | 107 | > 100000
17 | O=C(Nc1ccc(Oc2ccc(F)cc2)nc1)c1n[nH]c2ccc(-c3cccnc3)cc12 [compound 20, N-(6-(4-Fluorophenoxy)pyridin-3-yl)-5-(pyridin-3-yl)-1H-indazole-3-carboxamide] | 118 | 12000
18 | O=C(Nc1cncc(F)c1)c1n[nH]c2ccc(-c3cccnc3)cc12 [compound 23, N-(5-Fluoropyridin-3-yl)-5-(pyridin-3-yl)-1H-indazole-3-carboxamide] | 120 | > 100000
19 | CN(C)Cc1cncc(-c2ccc3[nH]nc(C(=O)Nc4ccc(C(F)(F)F)nc4)c3c2)c1 [compound 26, 5-(5-((Dimethylamino)methyl)pyridin-3-yl)-N-(6-(trifluoromethyl)pyridin-3-yl)-1H-indazole-3-carboxamide] | 210 | > 100000
20 | O=C(Nc1cccnc1)c1n[nH]c2ccc(-c3cncc(NC(=O)N4CCOCC4)c3)cc12 [compound 32, N-(5-(3-(Pyridin-3-ylcarbamoyl)-1H-indazol-5-yl)pyridin-3-yl) morpholine-4-carboxamide] | 1250 | > 100000
21 | CN(C)Cc1cncc(-c2ccc3[nH]nc(C(=O)Nc4ccc(Oc5ccccc5F)nc4)c3c2)c1 [compound 36, 5-(5-((Dimethylamino)methyl)pyridin-3-yl)-N-(6-(2-fluorophenoxy)pyridin-3-yl)-1H-indazole-3-carboxamide] | 275 | > 100000
22 | Cn1nc(NC(=O)c2n[nH]c3ccc(-c4cccnc4)cc23)cc1C(F)(F)F [compound 37, N-(1-Methyl-5-(trifluoromethyl)-1H-pyrazol-3-yl)-5-(pyridin-3-yl)-1H-indazole-3-carboxamide] | 1120 | > 100000
23 | CN1CCN(c2ccc(NC(=O)c3n[nH]c4ccc(-c5cncc(NC(=O)C6CC6)c5)cc34)cn2)CC1 [compound 38, 5-(5-(Cyclopropanecarboxamido)pyridin-3-yl)-N-(6-(4-methylpiperazin-1-yl)pyridin-3-yl)-1H-indazole-3-carboxamide] | 120 | 2840
24 | O=C(Nc1ccc(C(F)(F)F)nc1)c1n[nH]c2ccc(-c3cncc(NC(=O)C4CC4)c3)cc12 [compound 39, 5-(5-(Cyclopropanecarboxamido)pyridin-3-yl)-N-(6-(trifluoromethyl)pyridin-3-yl)-1H-indazole-3-carboxamide] | 65 | > 100000
25 | CN(C)Cc1cncc(-c2ccc3[nH]nc(C(=O)Nc4cccnc4)c3c2)c1 [compound 40, 5-(5-((Dimethylamino)methyl)pyridin-3-yl)-N-(pyridin-3-yl)-1H-indazole-3-carboxamide] | 65 | 5170
26 | O=C(Nc1cccnc1)c1n[nH]c2ccc(-c3cncc(NC(=O)C4CC4)c3)cc12 [compound 41, 5-(5-(Cyclopropanecarboxamido)pyridin-3-yl)-N-(pyridin-3-yl)-1H-indazole-3-carboxamide] | 67 | 8120
27 | O=C(Nc1cccnc1)c1n[nH]c2ccc(-c3cncc(CN4CCCC4)c3)cc12 [compound 43, N-(Pyridin-3-yl)-5-(5-(pyrrolidin-1-ylmethyl)pyridin-3-yl)-1H-indazole-3-carboxamide] | 63 | 5020
28 | CCOc1ccc(NC(=O)c2n[nH]c3ccc(-c4cncc(CN5CCCC5)c4)cc23)cn1 [compound 44, N-(6-Ethoxypyridin-3-yl)-5-(5-(pyrrolidin-1-ylmethyl)pyridin-3-yl)-1H-indazole-3-carboxamide] | 158 | 25100
29 | CCOc1ccc(NC(=O)c2n[nH]c3ccc(-c4cncc(CN5CCCCC5)c4)cc23)cn1 [compound 45, N-(6-Ethoxypyridin-3-yl)-5-(5-(piperidin-1-ylmethyl)pyridin-3-yl)-1H-indazole-3-carboxamide] | 110 | 9750
30 | O=C(Nc1cccnc1)c1n[nH]c2ccc(-c3cncc(CN4CCCCC4)c3)cc12 [compound 46, 5-(5-(Piperidin-1-ylmethyl)pyridin-3-yl)-N-(pyridin-3-yl)-1H-indazole-3-carboxamide] | 15 | 5060

— patent publication US10806726B2, “Methods of using indazole-3-carb oxamides and their use as Wnt/B-catenin signaling pathway inhibitors” (Samumed, LLC, priority 2016, dated 2020)
